According to BindingDB's records for doi:10.1016/j.bmc.2014.04.036 (Amri, 2014):
pIC50: −log10 of the molar value.

Molecular target: T1, Sodium/glucose cotransporter 1 (Homo sapiens, UniProt P13866)
T1 sequence (P13866 whole entry): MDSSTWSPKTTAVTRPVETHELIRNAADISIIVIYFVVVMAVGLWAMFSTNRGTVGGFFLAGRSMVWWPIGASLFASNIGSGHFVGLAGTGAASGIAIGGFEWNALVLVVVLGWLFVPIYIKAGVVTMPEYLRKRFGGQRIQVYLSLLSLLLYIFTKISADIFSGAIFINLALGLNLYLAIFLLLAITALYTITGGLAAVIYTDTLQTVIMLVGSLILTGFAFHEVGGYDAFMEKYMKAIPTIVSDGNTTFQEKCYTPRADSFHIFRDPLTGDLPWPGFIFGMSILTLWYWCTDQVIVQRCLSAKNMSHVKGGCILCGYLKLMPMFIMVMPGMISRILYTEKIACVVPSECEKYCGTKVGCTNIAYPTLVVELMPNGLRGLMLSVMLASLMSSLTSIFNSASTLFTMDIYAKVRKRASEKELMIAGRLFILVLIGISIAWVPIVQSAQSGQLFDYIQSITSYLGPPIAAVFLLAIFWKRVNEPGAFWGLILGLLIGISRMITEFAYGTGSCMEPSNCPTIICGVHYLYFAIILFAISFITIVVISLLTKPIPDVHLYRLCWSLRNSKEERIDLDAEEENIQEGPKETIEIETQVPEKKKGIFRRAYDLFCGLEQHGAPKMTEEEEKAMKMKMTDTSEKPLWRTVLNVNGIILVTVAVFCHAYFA
Experiment: Inhibition of human SGLT1 expressed in CHOK1 cells assessed as inhibition of [14C]-AMG uptake after 3 hrs by microbeta scintillation counting analysis

Structure (SMILES)	pIC50
O=c1n(Cc2cc([C@@H]3O[C@H](CO)[C@@H](O)[C@H](O)[C@H]3O)ccc2Cl)nc2ccc(C(F)(F)F)cn12 [US8575114, I-5]	< 4.05
O=c1n(Cc2cc([C@@H]3O[C@H](CO)[C@@H](O)[C@H](O)[C@H]3O)ccc2Cl)nc2ccc(CO)cn12 [US8575114, I-6]	< 4.05
Cc1cc2nn(Cc3cc([C@@H]4O[C@H](CO)[C@@H](O)[C@H](O)[C@H]4O)ccc3Cl)c(=O)n2cc1Cl [US8575114, I-12]	< 4.05
